In PMC12136037, “Type II kinase inhibitors that target Parkinson’s disease–associated LRRK2” (Science Advances, 2025):
Where “and” joins values, the source holds several entries; their conditions need not be identical. Equal entries are not always repeated.

Experiments:
G2019S LRRK2 = target: T1, G2019S LRRK2 (Homo sapiens, UniProt Q5S007, G2019S); experiment: Western blot of Rab8a phosphorylation in 293T cells transfected with G2019S LRRK2 and GFP-Rab8a; format: cell-based; conditions: for inhibition of Rab8a phosphorylation by wild-type and G2019S LRRK2: 293T cells; for pRab8/Rab8/LRRK2 normalized to DMSO, Mean / pRab8/Rab8/LRRK2 normalized to DMSO: GFP-11 tagged G2019S LRRK2, 5 μM; for pRab8/Rab8/LRRK2 normalized to DMSO, Mean: 4 replicates; for pRab8/Rab8/LRRK2 normalized to DMSO: individual blots, normalized to WT DMSO (G2019S DMSO mean 2.25334)
T1 construct: The three constructs used in this study are indicated: full-length LRRK2, LRRK2^RCKW, and LRRK2^KW
Procedure: For all in cell kinase assays, after 48 hours, transfected cells were treated with either DMSO (control) or the indicated inhibitors for 4 hours at 37°C and 5% CO2. Following treatments, cells were washed three times with ice cold PBS. Cells were then lysed in ice cold radioimmunoprecipitation assay (RIPA) lysis buffer [50 mM tris (pH 8.0), 150 mM NaCl, 1% Triton X-100, 0.1% SDS, 0.5% sodium deoxycholate, and 1 mM DTT] in the presence of complete mini EASYpack protease inhibitor cocktail and the PhosSTOP EASYpack phosphatase inhibitor cocktail (Roche). Resuspended and lysed cells were clarified by centrifugation at 13,000g for 15 min at 4°C. […] The membrane was blocked in 5% milk in 1× Tris-buffered saline (TBS) [20 mM tris (pH 8.0) and 150 mM NaCl] for 1 hour shaking at room temperature. […] Membranes were then washed three times in 1× TBS-T before imaging on Li-COR Odyssey CLx controlled by Imaging Studio software (www.licorbio.com/image-studio, RRID:SCR_015795). […] The signal intensity of each band was assessed using the Analyze>Gels tool. The band intensity for phosphorylated LRRK2 was measured and compared to total LRRK2 levels (run under identical conditions on a separate gel). Band intensity for phosphorylated Rab7 or Rab8a was measured and compared against total GFP-Rab7 or GFP-Rab8a (using anti-GFP antibody) and LRRK1/LRRK2 levels as appropriate. Comparative statistical analysis of phosphorylation levels was analyzed using a one-way analysis of variance (ANOVA) and corrected using Tukey’s multiple comparisons test in GraphPad Prism 10 (www.graphpad.com/, RRID:SCR_002798).

350 wild-type kinases [1] = target: T2, 350 wild-type kinases (Homo sapiens, UniProt P10398, Y301D/Y302D); experiment: 33PanQinase kinome-wide selectivity profile (Reaction Biology); format: biochemical; conditions: kinase ARAF YDYD (constitutively active variant), ATP 1 µM, singlicate
T2 construct: purchased Reaction Biology (assay service)
Procedure: (§1) Compound RN341 was tested at two concentrations of 1 and 10 μM against a panel of 350 wild-type kinases in the ^33PanQinase assay. The assay was performed by Reaction Biology (www.reactionbiology.com/services/kinase-assays/kinase-panel-screening/).

350 wild-type kinases [2] = target: T3, 350 wild-type kinases (Homo sapiens, UniProt P78368); experiment: as above; format: biochemical; conditions: kinase CK1gamma2, ATP 0,1 µM, singlicate
T3 construct: purchased Reaction Biology (assay service)
Procedure: as §1

350 wild-type kinases [3] = target: T4, 350 wild-type kinases (Homo sapiens, UniProt Q5S007); experiment: as above; format: biochemical; conditions: 1 and 10 μM; authors think kinase was inactive in panel
T4 construct: purchased Reaction Biology (assay service)
Procedure: as §1

350 wild-type kinases [4] = target: T5, 350 wild-type kinases (Homo sapiens, UniProt Q09013); experiment: as above; format: biochemical; conditions: kinase DMPK, ATP 0,1 µM, singlicate
T5 construct: purchased Reaction Biology (assay service)
Procedure: as §1

350 wild-type kinases [5] = target: T6, 350 wild-type kinases (Homo sapiens, UniProt P49760); experiment: as above; format: biochemical; conditions: kinase CLK2, ATP 0,3 µM, singlicate
T6 construct: purchased Reaction Biology (assay service)
Procedure: as §1

350 wild-type kinases [6] = target: T7, 350 wild-type kinases (Homo sapiens, UniProt Q9Y243); experiment: as above; format: biochemical; conditions: kinase AKT3, ATP 3 µM, singlicate
T7 construct: purchased Reaction Biology (assay service)
Procedure: as §1

350 wild-type kinases [7] = target: T8, 350 wild-type kinases (Homo sapiens, UniProt O14578); experiment: as above; format: biochemical; conditions: kinase CIT 1-450, ATP 0,1 µM, singlicate
T8 construct: purchased Reaction Biology (assay service)
Procedure: as §1

350 wild-type kinases [8] = target: T9, 350 wild-type kinases (Homo sapiens, UniProt P41240); experiment: as above; format: biochemical; conditions: kinase CSK, ATP 1 µM, singlicate
T9 construct: purchased Reaction Biology (assay service)
Procedure: as §1

350 wild-type kinases [9] = target: T10, 350 wild-type kinases (Homo sapiens, UniProt O43293); experiment: as above; format: biochemical; conditions: kinase DAPK3, ATP 0,1 µM, singlicate
T10 construct: purchased Reaction Biology (assay service)
Procedure: as §1

350 wild-type kinases [10] = target: T11, 350 wild-type kinases (Homo sapiens, UniProt O96017); experiment: as above; format: biochemical; conditions: kinase CHK2, ATP 1 µM, singlicate
T11 construct: purchased Reaction Biology (assay service)
Procedure: as §1

350 wild-type kinases [11] = target: T12, 350 wild-type kinases (Homo sapiens, UniProt Q16566); experiment: as above; format: biochemical; conditions: kinase CAMK4, ATP 1 µM, singlicate
T12 construct: purchased Reaction Biology (assay service)
Procedure: as §1

350 wild-type kinases [12] = target: T13, 350 wild-type kinases (Homo sapiens, UniProt Q00535); experiment: as above; format: biochemical; conditions: singlicate; for Residual activity (% of control), CDK5/p25NCK: kinase CDK5/p25NCK, ATP 0,3 µM; for Residual activity (% of control), CDK5/p35NCK: kinase CDK5/p35NCK, ATP 0,1 µM
T13 construct: purchased Reaction Biology (assay service)
Procedure: as §1

350 wild-type kinases [13] = target: T14, 350 wild-type kinases (Homo sapiens, UniProt P06493); experiment: as above; format: biochemical; conditions: singlicate; for Residual activity (% of control), CDK1/CycA2: kinase CDK1/CycA2, ATP 0,3 µM; for Residual activity (% of control), CDK1/CycB1: kinase CDK1/CycB1; for Residual activity (% of control), CDK1/CycB1 / Residual activity (% of control), CDK1/CycE1: ATP 1 µM; for Residual activity (% of control), CDK1/CycE1: kinase CDK1/CycE1
T14 construct: purchased Reaction Biology (assay service)
Procedure: as §1

350 wild-type kinases [14] = target: T15, 350 wild-type kinases (Homo sapiens, UniProt P48730); experiment: as above; format: biochemical; conditions: kinase CK1delta, ATP 0,3 µM, singlicate
T15 construct: purchased Reaction Biology (assay service)
Procedure: as §1

350 wild-type kinases [15] = target: T16, 350 wild-type kinases (Homo sapiens, UniProt Q13557); experiment: as above; format: biochemical; conditions: kinase CAMK2D, ATP 1 µM, singlicate
T16 construct: purchased Reaction Biology (assay service)
Procedure: as §1

350 wild-type kinases [16] = target: T17, 350 wild-type kinases (Homo sapiens, UniProt Q06187); experiment: as above; format: biochemical; conditions: kinase BTK, ATP 3 µM, singlicate
T17 construct: purchased Reaction Biology (assay service)
Procedure: as §1

T1 sequence (Q5S007 whole entry G2019S): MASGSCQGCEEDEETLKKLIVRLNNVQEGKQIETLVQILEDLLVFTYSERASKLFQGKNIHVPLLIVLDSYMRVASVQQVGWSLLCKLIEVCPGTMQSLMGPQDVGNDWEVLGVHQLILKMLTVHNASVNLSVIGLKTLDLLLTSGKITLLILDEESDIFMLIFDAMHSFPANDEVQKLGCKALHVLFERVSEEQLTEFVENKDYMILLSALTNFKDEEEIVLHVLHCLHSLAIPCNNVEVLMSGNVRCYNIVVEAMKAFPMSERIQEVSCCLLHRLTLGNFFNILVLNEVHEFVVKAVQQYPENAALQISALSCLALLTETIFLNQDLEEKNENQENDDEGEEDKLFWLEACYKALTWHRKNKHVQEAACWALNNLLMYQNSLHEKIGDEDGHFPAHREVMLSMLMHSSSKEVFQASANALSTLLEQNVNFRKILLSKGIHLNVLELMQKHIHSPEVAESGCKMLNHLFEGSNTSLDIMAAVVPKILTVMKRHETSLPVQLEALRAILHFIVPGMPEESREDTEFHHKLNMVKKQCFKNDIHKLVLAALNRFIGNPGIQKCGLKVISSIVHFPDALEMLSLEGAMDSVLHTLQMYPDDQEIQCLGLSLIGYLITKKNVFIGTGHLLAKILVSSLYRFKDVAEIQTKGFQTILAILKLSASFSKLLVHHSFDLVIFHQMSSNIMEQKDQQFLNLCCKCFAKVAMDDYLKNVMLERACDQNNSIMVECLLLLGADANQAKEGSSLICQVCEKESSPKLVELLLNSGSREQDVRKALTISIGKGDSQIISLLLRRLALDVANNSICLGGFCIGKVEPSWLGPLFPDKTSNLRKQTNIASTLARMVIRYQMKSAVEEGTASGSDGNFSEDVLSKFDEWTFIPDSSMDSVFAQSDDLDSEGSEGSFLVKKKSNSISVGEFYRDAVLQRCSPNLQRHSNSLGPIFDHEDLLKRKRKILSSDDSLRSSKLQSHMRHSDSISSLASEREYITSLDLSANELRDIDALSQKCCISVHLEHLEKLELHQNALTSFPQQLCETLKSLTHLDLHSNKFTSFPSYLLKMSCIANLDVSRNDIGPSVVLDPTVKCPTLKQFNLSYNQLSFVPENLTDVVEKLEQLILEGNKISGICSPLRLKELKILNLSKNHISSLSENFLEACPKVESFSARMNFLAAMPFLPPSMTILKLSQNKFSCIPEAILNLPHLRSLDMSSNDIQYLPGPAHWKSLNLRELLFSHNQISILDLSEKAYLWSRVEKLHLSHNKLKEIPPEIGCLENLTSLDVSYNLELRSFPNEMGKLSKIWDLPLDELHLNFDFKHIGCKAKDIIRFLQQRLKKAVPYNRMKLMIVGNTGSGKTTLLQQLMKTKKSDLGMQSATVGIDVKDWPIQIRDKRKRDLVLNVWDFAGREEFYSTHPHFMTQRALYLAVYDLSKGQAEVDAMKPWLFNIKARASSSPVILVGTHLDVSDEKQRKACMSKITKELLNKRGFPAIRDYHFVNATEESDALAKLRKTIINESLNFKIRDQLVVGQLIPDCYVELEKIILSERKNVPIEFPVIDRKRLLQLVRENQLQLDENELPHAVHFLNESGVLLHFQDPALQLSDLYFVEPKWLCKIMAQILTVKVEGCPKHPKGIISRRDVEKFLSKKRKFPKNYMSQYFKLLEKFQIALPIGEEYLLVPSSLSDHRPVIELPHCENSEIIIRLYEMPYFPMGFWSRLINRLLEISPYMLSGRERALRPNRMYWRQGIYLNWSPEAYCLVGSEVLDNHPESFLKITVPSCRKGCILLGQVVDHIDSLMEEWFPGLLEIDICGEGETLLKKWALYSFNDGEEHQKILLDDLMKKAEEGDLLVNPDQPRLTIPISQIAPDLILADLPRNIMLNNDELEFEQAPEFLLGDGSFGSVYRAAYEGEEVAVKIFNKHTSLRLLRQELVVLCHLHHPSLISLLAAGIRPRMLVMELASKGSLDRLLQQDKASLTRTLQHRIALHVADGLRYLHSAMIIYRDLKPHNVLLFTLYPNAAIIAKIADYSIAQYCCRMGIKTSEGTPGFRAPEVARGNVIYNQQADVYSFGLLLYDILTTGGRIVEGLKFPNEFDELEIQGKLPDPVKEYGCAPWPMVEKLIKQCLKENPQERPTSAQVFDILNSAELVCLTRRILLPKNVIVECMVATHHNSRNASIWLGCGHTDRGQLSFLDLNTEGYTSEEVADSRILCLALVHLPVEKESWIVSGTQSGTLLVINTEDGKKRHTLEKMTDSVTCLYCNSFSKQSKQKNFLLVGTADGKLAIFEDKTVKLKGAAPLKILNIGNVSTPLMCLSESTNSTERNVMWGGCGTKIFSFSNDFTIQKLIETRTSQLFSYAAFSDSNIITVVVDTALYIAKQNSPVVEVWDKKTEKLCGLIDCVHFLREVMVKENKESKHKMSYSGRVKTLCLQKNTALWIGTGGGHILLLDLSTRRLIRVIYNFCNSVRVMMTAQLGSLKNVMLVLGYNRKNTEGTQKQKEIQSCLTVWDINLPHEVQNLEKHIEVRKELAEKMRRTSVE
T13 sequence (Q00535 whole entry): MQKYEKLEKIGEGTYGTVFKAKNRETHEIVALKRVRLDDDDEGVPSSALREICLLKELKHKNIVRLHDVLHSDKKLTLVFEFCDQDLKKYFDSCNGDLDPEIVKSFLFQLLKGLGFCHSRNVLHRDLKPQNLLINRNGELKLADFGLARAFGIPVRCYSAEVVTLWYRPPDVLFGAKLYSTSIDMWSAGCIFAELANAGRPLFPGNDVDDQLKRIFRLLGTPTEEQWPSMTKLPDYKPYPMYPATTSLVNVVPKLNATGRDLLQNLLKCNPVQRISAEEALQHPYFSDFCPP
T14 sequence (P06493 whole entry): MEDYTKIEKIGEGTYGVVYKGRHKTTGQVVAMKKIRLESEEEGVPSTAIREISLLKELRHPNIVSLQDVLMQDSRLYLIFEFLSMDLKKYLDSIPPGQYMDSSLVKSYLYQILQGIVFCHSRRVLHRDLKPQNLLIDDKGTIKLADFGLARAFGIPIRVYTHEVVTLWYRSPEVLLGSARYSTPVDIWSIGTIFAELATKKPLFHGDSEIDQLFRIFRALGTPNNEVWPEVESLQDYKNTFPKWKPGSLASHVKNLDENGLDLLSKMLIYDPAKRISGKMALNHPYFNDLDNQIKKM
T17 sequence (Q06187 whole entry): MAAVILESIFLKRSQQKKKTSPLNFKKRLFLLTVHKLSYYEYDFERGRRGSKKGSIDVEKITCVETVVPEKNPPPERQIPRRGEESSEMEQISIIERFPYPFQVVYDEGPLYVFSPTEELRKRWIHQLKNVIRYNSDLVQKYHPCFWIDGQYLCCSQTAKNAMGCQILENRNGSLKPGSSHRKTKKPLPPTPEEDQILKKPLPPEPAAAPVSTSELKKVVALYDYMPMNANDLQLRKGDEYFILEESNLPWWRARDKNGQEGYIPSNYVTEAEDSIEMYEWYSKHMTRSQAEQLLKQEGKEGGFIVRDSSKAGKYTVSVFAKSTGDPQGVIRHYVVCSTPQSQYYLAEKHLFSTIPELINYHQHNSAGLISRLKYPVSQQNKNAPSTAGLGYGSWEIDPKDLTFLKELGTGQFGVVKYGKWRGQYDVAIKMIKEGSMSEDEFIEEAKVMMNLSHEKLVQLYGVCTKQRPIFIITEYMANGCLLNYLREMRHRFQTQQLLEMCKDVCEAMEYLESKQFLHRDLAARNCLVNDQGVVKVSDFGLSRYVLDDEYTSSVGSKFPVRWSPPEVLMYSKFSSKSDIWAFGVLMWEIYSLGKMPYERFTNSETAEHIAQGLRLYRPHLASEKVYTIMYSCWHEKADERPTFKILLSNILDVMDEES
T2 sequence (P10398 whole entry Y301D/Y302D): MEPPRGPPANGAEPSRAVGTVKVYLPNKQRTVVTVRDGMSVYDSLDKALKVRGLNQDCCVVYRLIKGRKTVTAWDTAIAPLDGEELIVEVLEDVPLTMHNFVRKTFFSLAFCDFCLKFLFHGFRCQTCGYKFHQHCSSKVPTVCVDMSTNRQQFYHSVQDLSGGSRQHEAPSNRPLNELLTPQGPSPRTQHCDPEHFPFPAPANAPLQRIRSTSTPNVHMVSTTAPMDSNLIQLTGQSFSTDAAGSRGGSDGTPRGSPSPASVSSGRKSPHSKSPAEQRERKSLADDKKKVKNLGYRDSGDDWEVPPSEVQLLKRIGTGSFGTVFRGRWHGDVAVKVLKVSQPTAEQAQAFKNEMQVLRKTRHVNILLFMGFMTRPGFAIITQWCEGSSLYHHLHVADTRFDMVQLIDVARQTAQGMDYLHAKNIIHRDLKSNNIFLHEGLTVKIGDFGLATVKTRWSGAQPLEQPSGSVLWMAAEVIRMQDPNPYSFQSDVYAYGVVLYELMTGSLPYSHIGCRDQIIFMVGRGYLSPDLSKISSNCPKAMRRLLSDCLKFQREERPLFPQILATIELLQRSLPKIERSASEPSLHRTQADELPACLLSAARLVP
T11 sequence (O96017 whole entry): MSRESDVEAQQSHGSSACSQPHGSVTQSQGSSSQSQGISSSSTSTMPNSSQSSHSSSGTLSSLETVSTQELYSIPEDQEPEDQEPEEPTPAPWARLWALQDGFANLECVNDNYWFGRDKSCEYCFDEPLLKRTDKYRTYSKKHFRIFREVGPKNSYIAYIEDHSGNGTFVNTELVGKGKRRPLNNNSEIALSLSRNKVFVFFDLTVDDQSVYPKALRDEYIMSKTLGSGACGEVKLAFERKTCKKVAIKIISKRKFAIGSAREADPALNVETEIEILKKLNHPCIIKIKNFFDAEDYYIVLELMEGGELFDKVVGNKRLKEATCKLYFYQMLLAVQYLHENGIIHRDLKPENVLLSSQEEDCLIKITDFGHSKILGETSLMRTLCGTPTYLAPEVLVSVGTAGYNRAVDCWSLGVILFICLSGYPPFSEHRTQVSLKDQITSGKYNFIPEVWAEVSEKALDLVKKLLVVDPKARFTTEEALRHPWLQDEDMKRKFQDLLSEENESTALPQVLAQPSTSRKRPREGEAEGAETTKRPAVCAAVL
T4 sequence (Q5S007 whole entry): as the sequence (Q5S007 whole entry G2019S) above, with S2019G counted along it

## Cc1ccc(-n2nc(C(C)(C)C)cc2NC(=O)Nc2cccc(-c3c[nH]c4nc(Cl)nc(N5CCOCC5)c34)c2)cc1 [Compound 30]
G2019S LRRK2
  inhibition of Rab8a phosphorylation by wild-type and G2019S LRRK2: inhibited phosphorylation of Rab8a by both the wild-type and mutant kinase
  pRab8/Rab8/LRRK2 normalized to DMSO, Mean: 0.5785
G2019S LRRK2; listed as RN277
  pRab8/Rab8/LRRK2 normalized to DMSO: 0.5672 and 0.4996 and 1.119 and 0.1285

## CCSc1nc(NC)c2c(-c3cccc(NC(=O)Nc4cc(C(C)(C)C)nn4-c4ccc(C)cc4)c3)c[nH]c2n1 [Compound 32]
G2019S LRRK2
  inhibition of Rab8a phosphorylation by wild-type and G2019S LRRK2: inhibited phosphorylation of Rab8a by both the wild-type and mutant kinase
  pRab8/Rab8/LRRK2 normalized to DMSO, Mean: 0.8793
G2019S LRRK2; listed as RN341
  pRab8/Rab8/LRRK2 normalized to DMSO: 0.923 and 1.39 and 0.7952 and 0.4091
350 wild-type kinases [1]; Assay Conc. 1.0E-05 M
  Residual activity (% of control), ARAF YDYD: 89 % of control
350 wild-type kinases [1]; Assay Conc. 1.0E-06 M
  Residual activity (% of control), ARAF YDYD: 116 % of control
350 wild-type kinases [2]; Assay Conc. 1.0E-05 M
  Residual activity (% of control), CK1gamma2: 88 % of control
350 wild-type kinases [2]; Assay Conc. 1.0E-06 M
  Residual activity (% of control), CK1gamma2: 102 % of control
350 wild-type kinases [3]
  LRRK2 inhibition in the 33PanQinase screen: not detected as a LRRK2 inhibitor
350 wild-type kinases [4]; Assay Conc. 1.0E-05 M
  Residual activity (% of control), DMPK: 69 % of control
350 wild-type kinases [4]; Assay Conc. 1.0E-06 M
  Residual activity (% of control), DMPK: 106 % of control
350 wild-type kinases [5]; Assay Conc. 1.0E-05 M
  Residual activity (% of control), CLK2: 86 % of control
350 wild-type kinases [5]; Assay Conc. 1.0E-06 M
  Residual activity (% of control), CLK2: 109 % of control
350 wild-type kinases [6]; Assay Conc. 1.0E-05 M
  Residual activity (% of control), AKT3: 113 % of control
350 wild-type kinases [6]; Assay Conc. 1.0E-06 M
  Residual activity (% of control), AKT3: 115 % of control
350 wild-type kinases [7]; Assay Conc. 1.0E-05 M
  Residual activity (% of control), CIT 1-450: 71 % of control
350 wild-type kinases [7]; Assay Conc. 1.0E-06 M
  Residual activity (% of control), CIT 1-450: 100 % of control
350 wild-type kinases [8]; Assay Conc. 1.0E-05 M
  Residual activity (% of control), CSK: 69 % of control
350 wild-type kinases [8]; Assay Conc. 1.0E-06 M
  Residual activity (% of control), CSK: 97 % of control
350 wild-type kinases [9]; Assay Conc. 1.0E-05 M
  Residual activity (% of control), DAPK3: 82 % of control
350 wild-type kinases [9]; Assay Conc. 1.0E-06 M
  Residual activity (% of control), DAPK3: 98 % of control
350 wild-type kinases [10]; Assay Conc. 1.0E-05 M
  Residual activity (% of control), CHK2: 64 % of control
350 wild-type kinases [10]; Assay Conc. 1.0E-06 M
  Residual activity (% of control), CHK2: 90 % of control
350 wild-type kinases [11]; Assay Conc. 1.0E-05 M
  Residual activity (% of control), CAMK4: 100 % of control
350 wild-type kinases [11]; Assay Conc. 1.0E-06 M
  Residual activity (% of control), CAMK4: 113 % of control
350 wild-type kinases [12]; Assay Conc. 1.0E-05 M
  Residual activity (% of control), CDK5/p25NCK: 66 % of control
  Residual activity (% of control), CDK5/p35NCK: 76 % of control
350 wild-type kinases [12]; Assay Conc. 1.0E-06 M
  Residual activity (% of control), CDK5/p25NCK: 95 % of control
  Residual activity (% of control), CDK5/p35NCK: 94 % of control
350 wild-type kinases [13]; Assay Conc. 1.0E-05 M
  Residual activity (% of control), CDK1/CycA2: 62 % of control
  Residual activity (% of control), CDK1/CycB1: 82 % of control
  Residual activity (% of control), CDK1/CycE1: 51 % of control
350 wild-type kinases [13]; Assay Conc. 1.0E-06 M
  Residual activity (% of control), CDK1/CycA2: 110 % of control
  Residual activity (% of control), CDK1/CycB1: 105 % of control
  Residual activity (% of control), CDK1/CycE1: 104 % of control
350 wild-type kinases [14]; Assay Conc. 1.0E-05 M
  Residual activity (% of control), CK1delta: 85 % of control
350 wild-type kinases [14]; Assay Conc. 1.0E-06 M
  Residual activity (% of control), CK1delta: 98 % of control
350 wild-type kinases [15]; Assay Conc. 1.0E-05 M
  Residual activity (% of control), CAMK2D: 67 % of control
350 wild-type kinases [15]; Assay Conc. 1.0E-06 M
  Residual activity (% of control), CAMK2D: 104 % of control
350 wild-type kinases [16]; Assay Conc. 1.0E-05 M
  Residual activity (% of control), BTK: 37 % of control
350 wild-type kinases [16]; Assay Conc. 1.0E-06 M
  Residual activity (% of control), BTK: 80 % of control
